Measurements taken from US12643924B2, “Cardiac-specific targeting-peptide (CTP), compositions, and uses thereof” (University of Pittsburgh—Of the Commonwealth System of …, priority 2018, dated 2026).
Where no end group is shown, it is not given here.

Tests used:
[1] = test system: H9C2 cells; assay: Alanine scan: percentage of Cy5.5 positive H9C2 cells by FACS; assay type: cell-based, rat; conditions: percentage of Cy5.5 positive H9C2 cells normalized to non-mutated peptide (SEQ ID NO: 1); Cy5.5-conjugated peptides, 30 minutes at 37° C.
Method: (§1) Variants of SEQ ID NO: 1 in which every amino acid was systematically mutated to alanine were synthesized in the University of Pittsburgh Peptide Synthesis Facility. Each variant was conjugated to the Cyanine5.5 fluorescent dye (Cy5.5). The rat cardiomyocyte cell line H9C2 (ATCC, catalogue #: CRL-1446) was incubated for 30 minutes at 37° C. with Dimethyl sulfoxide (DMSO) as a control, or the alanine peptide variants. Cells were then washed 3 times with PBS, trypsinized and resuspended, stained for live/dead cells, and then FACS sorted for Cy5.5 positive cells.
The percentage of Cy5.5 positive H9C2 cells, normalized to the non-mutated peptide (SEQ ID NO: 1), for each peptide variant is summarized in Table 2 below.

[2] = test system: H9C2 cells; assay: Fluorescence activated cell sorting of H9C2 cells after 30 min incubation with 10 uM peptide (median Cy5.5); assay type: cell-based, rat; conditions: for Corrected Median Cy5.5 / Raw Median Cy5.5: H9C2 cells, 30 min incubation, 10 uM peptide, single replicates; for Corrected Median Cy5.5: corrected for peptide fluorescence; for Average Correction: average of corrected median Cy5.5, H9C2 cells, FIG. 1C
Method: as §1

[3] = test system: myocardial tissue; assay: Fluorescence intensity in myocardial tissue 15 minutes after injection of fluorescently-labeled CTP variants; assay type: in vivo; conditions: mice; for fluorescence intensity in myocardial tissue compared to CTP: FIG. 6B
Method: Additionally, fluorescently-labeled CTP variants (CTP, CTP-B, H4A, P2A) or fluorescently-labeled random peptide sequence (RAN) were injected into mice and fluorescence intensity was measured in fixed myocardial tissue. Mice were injected with peptides, and, 15 minutes after injection, heart tissue was dissected, cryosectioned, stained, and analyzed for fluorescence intensity.

[4] = test system: H9C2 cells, MEF cells, 3T3 cells; assay: Transduction of cell lines by Cy5.5 labeled N- and C-terminal CTP variants (FACS); assay type: cell-based; conditions: across all three cell lines; FIGS. 2A-2D
Method: (§2) FIGS. 2A-2E are a series of bar graphs that show the transduction efficiencies and viability of various cell types incubated with Cy5.5 labeled cardiac-specific targeting peptide variants. […] CTP (Full Length): NH2-APWHLSSQYSRT-COOH (SEQ ID NO: 1); CTP-A: NH2-APWHLS-COOH (SEQ ID NO: 24); CTP-B: NH2-SQYSRT-COOH (CTP6aa; SEQ ID NO: 5); cyclic: cyclized version of the indicated peptide; CTP-Random: random, linear, 12-amino acid peptide (RAN: NH2-STLMKFCYVEQN-COOH ((SEQ ID NO: 26)); DMSO: Dimethyl sulfoxide.
(§3) Solid-phase peptide synthesis were used to synthesize the full-length form (NH2-APWHLSSQYSRT-COOH (SEQ ID NO: 1)), as well as an N-terminus 6 amino acid called CTP-A (NH2-APWHLS-COOH (SEQ ID NO: 24)), or as CTP6aa (NH2-SQYSRT-COOH (SEQ ID NO: 5)) peptides. Full length and CTP6aa were also synthesized in a cyclic forms. A random, linear, 12-amino acid long peptide (RAN: NH2-STLMKFCYVEQN-COOH (SEQ ID NO: 26)) was also synthesized to serve as control. All peptides were fluorescently labeled with Cyanine5.5 (Cy5.5). Isolated, beating neonatal mouse cardiomyocytes (CMC) were incubated with 10 μM of the peptides at 37° C. for 30 minutes, washed extensively with PBS and confocal microscopy performed. […]

[5] = test system: H9C2 cells and MEFs; assay type: cell-based; conditions: compared to full-length peptide and DMSO control; FIG. 2E
Method: as §2, §3

Substance: AAWHLSSQYSRT (also: Cy5.5 conjugate, site not given here) [P2A, alanine variant of CTP, Cy5.5 conjugated]
- % transduction of H9C2 Cells [1]: 59.15%
- Corrected Median Cy5.5 ([2]; listed as P2A_001): 9901.8
- Corrected Median Cy5.5 ([2]; listed as P2A_002): 9298.9
- Corrected Median Cy5.5 ([2]; listed as P2A_003): 9488.4
- Raw Median Cy5.5 ([2]; listed as P2A_001): 9449
- Raw Median Cy5.5 ([2]; listed as P2A_002): 8834
- Raw Median Cy5.5 ([2]; listed as P2A_003): 9014
- Average Correction [2]: 9535.0
- fluorescence intensity in myocardial tissue compared to CTP [3]: significantly greater

Substance: APWHLSSQYSRT (also: Cy5.5 label, site not given here) [CTP, 12-amino acid cardiac-specific targeting peptide, tested conjugated to Cy5.5]
- % transduction of H9C2 Cells [1]: 100%
- Corrected Median Cy5.5 ([2]; listed as CTP_001): 5652.0
- Corrected Median Cy5.5 ([2]; listed as CTP_002): 6028.0
- Corrected Median Cy5.5 ([2]; listed as CTP_003): 6308.0
- Raw Median Cy5.5 ([2]; listed as CTP_001): 5652
- Raw Median Cy5.5 ([2]; listed as CTP_002): 6028
- Raw Median Cy5.5 ([2]; listed as CTP_003): 6308
- Average Correction [2]: 5996

Substance: SQYSRT (Description of Artificial Sequence: Cardiac Targeting Peptide (CTP-B)) [linear six C-terminal amino acid cardiac-specific targeting peptide]
- transduction compared to the full-length peptide [4]: at least as well as the full-length peptide
- Corrected Median Cy5.5 ([2]; listed as CTP-B_001): 5663.7
- Corrected Median Cy5.5 ([2]; listed as CTP-B_002): 6469.2
- Corrected Median Cy5.5 ([2]; listed as CTP-B_003): 6240.8
- Raw Median Cy5.5 ([2]; listed as CTP-B_001): 4711
- Raw Median Cy5.5 ([2]; listed as CTP-B_002): 5381
- Raw Median Cy5.5 ([2]; listed as CTP-B_003): 5191
- Average Correction [2]: 6124.6
- uptake compared to random peptide sequence and CTP [3]: superior uptake
- fluorescence intensity in myocardial tissue compared to CTP [3]: significantly greater
- cell viability [5]: did not alter cell viability
